Tested on: HT-29
Assay: In vitro inhibitory activity against colon carcinoma HT-29 cells after 72 hr using in-house program
Assay type: functional, cell-based
Details: Homo sapiens, HT-29, 72 h

EC50	Structure (SMILES)
1.5 µM	c1ccc(Cn2c3ccccc3[n+]3nc4c(cc23)-c2cccc3cccc-4c23)cc1
3.7 µM	c1ccc(Cn2c3ccccc3[n+]3nc4c(c(-c5ccccc5)c23)-c2cccc3cccc-4c23)cc1
3.7 µM	Cn1c2ccccc2[n+]2nc3c(cc12)-c1cccc2cccc-3c12
24 µM	COC(=O)c1ccc(Cn2c3ccccc3[n+]3nc4c(cc23)-c2cccc3cccc-4c23)cc1
2.1 µM	CCOC(=O)c1c2c(cc3n(Cc4ccccc4)c4ccccc4[n+]13)-c1cccc3cccc-2c13
> 100 µM	NCCNC(=O)Cn1c2ccccc2[n+]2nc3c(cc12)-c1cccc2cccc-3c12
37 µM	Nn1c2ccccc2[n+]2nc3c(cc12)-c1cccc2cccc-3c12
54 µM	CCOC(=O)Cn1c2ccccc2[n+]2nc3c(cc12)-c1cccc2cccc-3c12
1.8 µM	CCOC(=O)Cn1c2ccccc2[n+]2c(C(=O)OCC)c3c(cc12)-c1cccc2cccc-3c12
